{"source": "paper PMC7901654", "about": "“Bioisosteric Discovery of NPA101.3, a Second-Generation RET/VEGFR2 Inhibitor Optimized for Single-Agent Polypharmacology” (Journal of Medicinal Chemistry, 2020)", "tested_on": "RET (either transfected or endogenously expressing) mutant cells", "assay": "Growth inhibition, all RET mutant cells (summary)", "assay_type": "cell-based", "details": "range over transfected and endogenously expressing cells; read-out: IC50, growth inhibitory effect on RET mutant cells", "method": "Finally, NPA101.3 featured efficacy already at 1 mg/kg/day in RET-driven tumors in nude mice. […] Therefore, though in a therapeutic setting toxicity may be increased by hitting multiple targets, it is feasible that the activity of the NPA101.3 against RET-driven tumors may take advantage of a synergistic combination of cell autonomous (on tumor cell growth mediated by RET inhibition) and non-cell autonomous (on blood vessel formation mediated by VEGFR2 inhibition) effects, potentiating its effect and reducing the chances of resistance development. Several TKIs with anti-RET activity are available, and some are already registered for the treatment of different types of thyroid cancers. […]\nNthy-ory-3-1 (10000 per well), TPC-1 (10000 per well), MZ-CRC-1 (100000 per well), TT (200000 per well), Lc-2/ad (100000 per well), BCPAP (10000 per well), 8505-C (10000 per well), PC-9 (10000 per well), A549 (10000 per well), CALU-1 (10000 per well), NIH3T3 RET/C634Y (10000 per well), and NIH3T3 HRAS/G12V (10000 per well) were seeded in six-well tissue culture plates. […] Cells were counted every day (Ba/F3), every 2 days (fibroblasts), or every 2–3 days (human cell lines). […] IC50 doses were calculated through a curve fitting analysis from last day of growth curves using the PRISM software program (Graphpad Software Inc.).", "data": [{"molecule": "CC(C)(C)c1cc(NC(=O)Cc2ccc(-n3cnc4cc(-c5ccc(S(C)(=O)=O)cc5)ccc43)cc2)no1", "note": "[NPA101.3]", "values": [{"measurement": "IC50", "result": "0.67 to 4.17", "unit": "nM"}]}]}
